According to article PMC5354587, “Ergosterone-coupled Triazol molecules trigger mitochondrial dysfunction, oxidative stress, and acidocalcisomal Ca^2+ release in Leishmania mexicana promastigotes” (Microbial Cell, 2015):
Where two headings read alike, the source gives them in different places.

Columns and labels:
Format in all cases: cell-based
[1] = test system: Leishmania mexicana promastigotes; test: Half-inhibitory concentration on parasites, modified MTT method; conditions: for IC50: read-out: IC50 on L. mexicana promastigotes; for growth inhibition on promastigotes: concentrations even higher than 100 μM; for Selectivity index: promastigotes compared to human dermic fibroblasts
Method: Parasites were treated with different concentrations of the synthesized compounds for 48 hours to determine their cytotoxic effect. A dose dependent growth inhibition was observed after this time.
(§1) Promastigotes of Leishmania mexicana Bel 21 strain were cultured at 26°C in Liver Infusion Tryptone (LIT) medium supplemented with 10% fetal bovine serum (Internegocios). Primary cultures of human dermic fibroblasts were performed at 37°C in DMEN medium (Sigma) supplemented with 10% fetal bovine serum in a CO2 incubator at 5% CO2.
(§2) To determine the IC50 in parasites and human fibroblasts the protocol described by was followed. Briefly, a suspension of 2 x 10^6 parasites per mL^-1 or 5 x 10^3 fibroblasts per well were transferred into 96 well plates and different concentrations of the compounds were added. Plates were incubated under the corresponding culture conditions for 48 or 72 hours for L. mexicana or human fibroblasts, respectively. Thereafter, parasites plates were centrifuged prior to the elimination of the supernatant. Cell viability was measured by the modified MTT method, where cells were incubated with the MTT substrate at 0.2 mg x mL^-1 for 4 hours. Colored crystals formed were solubilized in DMSO and absorbance was measured at 570 nm. IC50 was obtained from a dose response curve using the software OriginLab Pro 6.0^©.

human dermic fibroblasts = test: Half-inhibitory concentration on human fibroblasts, modified MTT method; conditions: 72 hours
Method: as §1, §2

[2] = test system: Leishmania mexicana promastigotes; test: Mitochondrial membrane potential, Mitotracker Red CMXROS, flow cytometry
Method: In order to determine the energetic state of the mitochondrion after parasites treatment, the compound Mitotraker Red CMXROS was used. As described in the Materials and Methods section, parasites were treated for 6, 16, 24, and 48 hours with each molecule at its IC50, then incubated with Mitotraker Red CMXROS (50 nM) for 30 minutes under culture conditions, and finally analyzed by flow cytometry. […] Additionally, to rule out if Erg itself (the non-azole fraction of the conjugates) could be responsible for this hyperpolarization, parasites were treated with this compound and ΔΨmit was monitored for up to 48 hours by flow cytometry.
Mitotracker CMX Red(Invitrogen) was used to determine the mitochondrial membrane potential (Ψmit) of treated parasites. After 6, 16, 24, and 48 hours treatment, cells were incubated in culture medium with 50 nM Mitotracker CMX Red for 30 minutes at 26°C in the dark. Thereafter, parasites were washed twice with PBS, resuspended in 1 mL buffer, and analyzed using a cytometer (Beckman Coulter). Parasites incubated with valinomycin (500 nM for 30 minutes) were used as positive control. To evaluate the effect of ergosterone coupled molecules on the mitochondrial membrane potential immediately after molecule addition we used the fluorophore rhodamine-123, a mitochondrion-specific cationic dye, which distributes across the inner mitochondrial membranes strictly according to their membrane potential, as described before. Briefly, 1 x 10^7 parasites were washed twice with rhodamine 123 loading buffer (20 mM Tris-HCl, 130 mM KCl, 1 mM MgCl2, and 2 mM KH2PO4) and incubated with 20 μM rhodamine 123 for 45 minutes at 29°C under agitation. Samples were washed twice, resuspended in 500 μL of the same buffer, and transferred to a quartz cuvette. Fluorescence (ex 488 nm and em 530 nm) was registered in a Hitachi F-7000 Spectrofluorimeter. FCCP was used as control for mitochondrial membrane depolarization.

[3] = test system: Leishmania mexicana promastigotes; test: Reactive oxygen species (superoxide) determination with dihydroethidium; conditions: Erg-GTr/Erg-GTr2 treated cells; data not shown
Method: To evaluate the intracellular level of reactive oxygen species (ROS) after Erg-GTr or Erg-GTr2 treatment, parasites were incubated with dihydroethidium, which become oxidized in the presence of the superoxide anion to form the fluorescent DNA-intercalating agent ethidium, i.e. the emitted fluorescence is proportional to the amount of ROS present. Figure 6A represents a ROS production kinetics analysis performed between 6 and 48 hours post-treatment with both molecules. […] In fact, ROS levels increased already during the first 6 hours of treatment when compared with control cells, which maintained a ROS level lower than 2% throughout the whole kinetic study.
Figure 6 FIGURE 6: Superoxide production after Erg-GTr or Erg-GTr2 treatment. Parasites were treated with 1.4 μM Erg-GTr or 2.3 μM Erg-GTr2 or DMSO (control cells), harvested after different time points and then prepared to measure intracellular superoxide using dyhidroethidium. (A) Superoxide production kinetics in control and treated parasites. […] (B) Representative FACS histograms showing the superoxide-sensitive fluorescence of control and treated promastigotes after 24 hours incubation. The percentages were determined using the WinMDI software. […]
Dihydroethidium (Invitrogen) was used to detect the intracellular level of superoxide anion. […] Thereafter, samples were washed with PBS and immediately analyzed in a Beckman Coulter Cytometer.

[4] = test system: Leishmania mexicana promastigotes; test: Alkalinization of acidocalcisomes, acridine orange; conditions: Erg-GTr 1.4 μM or Erg-GTr2 2.4 μM; nigericin 2 μM as control
Source text: Leishmania can store Ca^2+ in different compartments like the endoplasmic reticulum, the mitochondrion, and the acidocalcisomes. The major Ca^2+ reservoir is represented by this last organelle. In order to analyze if the [Ca^2+]cyt increase is due to its release from acidocalcisomes, parasites were charged with acridine orange and assayed fluorimetrically. Since acridine orange accumulates in acidic compartments, it allows detection of alkalinization.
To evaluate the effect of ergosterone coupled molecules on the Ca^2+ reservoir organelle acidocalcisome, parasites were stained with acridine orange as described previously. Briefly, 1 x 10^7 parasites were washed twice with loading buffer (20 mM Tris-HCl, 130 mM KCl, 1 mM MgCl2, and 2 mM KH2PO4) and incubated for 5 minutes with acridine orange (5 μM). Samples were washed twice, resuspended in 500 μL of the same buffer, and transferred to a stirred quartz cuvette at 29°C. Fluorescence (ex 488 nm and em 530 nm) was registered in a Hitachi F-7000 Spectrofluorimeter. Nigericin was used as control for acidocalcisome alkalinization.

## NNC(=O)[n+]1ccccc1.[Cl-] [GP, 1-hydrazinocarbonyl-pyridinium chloride, reference compound]
[1]; Leishmania mexicana, 48 h
  IC50: > 200 µM
[1]; 48 hours
  growth inhibition on promastigotes: did not show inhibition

## CC(C)C(C)C=CC(C)C1CCC2C3=CC=C4CC(O)CCC4(C)C3CCC21C (stereo not shown) [Ergosterol, 10,13-dimethyl-17-(1,4,5-trimethyl-hex-2-enyl)-2,3,4,9,10,11,12,13,14,15,16,17-dodecahydro-1H-cyclopenta[a]phenanthren-3-ol, reference compound]
[1]; Leishmania mexicana, 48 h
  IC50: 33.8 ± 4.7 µM
[1]
  Selectivity index: 0.8
Human dermic fibroblasts; Fibroblast
  IC50: 27 ± 3.5 µM

## 1-[5-hydroxy-10-methyl-3-oxo-17-(1,4,5-trimethyl-hex-2-enyl)-1,2,3,4,5,9,10,11,12,13,14,15,16,17-tetradecahydro-cyclopenta[a]phenanthren-6-ylidene-hydrazinocarbonyl]-pyridinium chloride [Erg-GP]
[1]; 48 hours, MTT
  IC50: 42.4 ± 2.8 µM
[1]
  Selectivity index: 1.0
Human dermic fibroblasts
  IC50: 44.5 µM

## CC(C)C(C)C=CC(C)C1CCC2C3=CC(=O)C4(O)CC(=O)CCC4(C)C3CCC21C (stereo not shown) [Ergosterone, 5-hydroxy-10,13-dimethyl-17-(1,4,5-trimethyl-hex-2-enyl)-1,4,5,9,10,11,12,13,14,15,16,17-dodecahydro-2H-cyclopenta[a]phenanthrene-3,6-dione]
[1]; Leishmania mexicana, 48 h
  IC50: 9 ± 0.7 µM
[1]
  Selectivity index: 3.1
[2]; treatment up to 48 hours, flow cytometry
  effect on inner mitochondrial membrane potential (ΔΨmit): No differences
Human dermic fibroblasts; Fibroblast
  IC50: 28.3 ± 8.5 µM

## C[N+](C)(C)CC(=O)NN [GT, hydrazinocarbonylmethyl-trimethyl-ammonium chloride, reference compound]
[1]; Leishmania mexicana, 48 h
  IC50: > 200 µM
[1]; 48 hours
  growth inhibition on promastigotes: did not show inhibition

## CC(=O)N[C@@H](CS)C(=O)O [N-acetyl-cysteine, reference compound]
[2]; Erg-GTr/Erg-GTr2 treated cells, data not shown
  effect of ROS scavenger on mitochondrion hyperpolarization: did not prevent
[3]
  effect of ROS scavenger on ROS formation: revert partially

## CO[C@@H]1C[C@@H](C[C@H]2CC[C@H](C)[C@H]([C@@H](C)C(=O)O)O2)O[C@]2(O[C@](C)([C@H]3CC[C@@](C)([C@@H]4O[C@@H]([C@H]5O[C@@](O)(CO)[C@H](C)C[C@@H]5C)C[C@@H]4C)O3)C[C@H]2C)[C@@H]1C [nigericin, reference compound]
[4]
  acridine orange fluorescence (acidocalcisome alkalinization): further reduction of the acidity

## NNC(=O)n1cnnc1 [GTr, [1,2,4]triazole-4-carboxylic acid hydrazide]
[1]; Leishmania mexicana, 48 h
  IC50: 158 µM
[1]; 48 hours
  growth inhibition on promastigotes: did not show inhibition

## [5-hydroxy-10-methyl-3-oxo-17-(1,4,5-trimethyl-hex-2-enyl)-1,2,3,4,5,9,10,11,12,13,14,15,16,17-tetradecahydro-cyclopenta[a]phenanthren-6-ylidene-hydrazinocarbonylmethyl]-trimethyl-ammonium chloride [Erg-GT]
[1]; 48 hours, MTT
  IC50: 10.4 ± 0.2 µM
[1]
  Selectivity index: 3.5
Human dermic fibroblasts
  IC50: 36.4 µM
